# PubChem BioAssay (NCI)
#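 Assay format: 96-well plates, 48-hour exposure. TGI denotes the concentration required for complete inhibition of growth.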
# Columns and labels:
# Test in all cases: NCI tumour cell line growth inhibition, 48 h
# HOP-62 NSCLC = system: HOP-62 NSCLC
# COLO 205 colon = system: COLO 205 colon
# NCI-H460 lung = system: NCI-H460 lung
# UO-31 renal = system: UO-31 renal
# RXF 393 renal = system: RXF 393 renal
# SNB-75 CNS = system: SNB-75 CNS
# OVCAR-8 ovarian = system: OVCAR-8 ovarian
# HOP-92 NSCLC = system: HOP-92 NSCLC
# CAKI-1 renal = system: CAKI-1 renal
# HCC-2998 colon = system: HCC-2998 colon
# MCF7 breast = system: MCF7 breast
# OVCAR-5 ovarian = system: OVCAR-5 ovarian
# K-562 leukemia = system: K-562 leukemia
# NCI-H226 lung = system: NCI-H226 lung
# A549 NSCLC = system: A549 NSCLC
# OVCAR-3 ovarian = system: OVCAR-3 ovarian
# SK-MEL-5 melanoma = system: SK-MEL-5 melanoma
# ACHN renal = system: ACHN renal
# LOX IMVI melanoma = system: LOX IMVI melanoma
# UACC-257 melanoma = system: UACC-257 melanoma
# HT29 colon = system: HT29 colon
# SNB-78 CNS = system: SNB-78 CNS
# SK-MEL-28 melanoma = system: SK-MEL-28 melanoma
# SF-268 CNS = system: SF-268 CNS
# MALME-3M melanoma = system: MALME-3M melanoma
# SW-620 colon = system: SW-620 colon
# DMS 114 small cell lung = system: DMS 114 small cell lung
# HL-60(TB) leukemia = system: HL-60(TB) leukemia
# EKVX NSCLC = system: EKVX NSCLC
# M14 melanoma = system: M14 melanoma
# HOP-18 NSCLC = system: HOP-18 NSCLC
# OVCAR-4 ovarian = system: OVCAR-4 ovarian
# DLD-1 colon = system: DLD-1 colon
# SF-539 CNS = system: SF-539 CNS
# NCI/ADR-RES ovarian = system: NCI/ADR-RES ovarian
# UACC-62 melanoma = system: UACC-62 melanoma
# HCT-15 colon = system: HCT-15 colon
# M19-MEL melanoma = system: M19-MEL melanoma
# LXFL 529 NSCLC = system: LXFL 529 NSCLC
# TK-10 renal = system: TK-10 renal
# 786-0 renal = system: 786-0 renal
# SF-295 CNS = system: SF-295 CNS
# NCI-H23 lung = system: NCI-H23 lung
# SK-MEL-2 melanoma = system: SK-MEL-2 melanoma
# MDA-MB-435 = system: MDA-MB-435
# U251 CNS = system: U251 CNS
# A498 renal = system: A498 renal
# SK-OV-3 ovarian = system: SK-OV-3 ovarian
# DU-145 prostate = system: DU-145 prostate
# HCT-116 colon = system: HCT-116 colon
# IGROV1 ovarian = system: IGROV1 ovarian
# CCRF-CEM leukemia = system: CCRF-CEM leukemia
# BT-549 breast = system: BT-549 breast
# SN12C renal = system: SN12C renal
# RPMI-8226 leukemia = system: RPMI-8226 leukemia
# KM20L2 colon = system: KM20L2 colon
# RXF-631 renal = system: RXF-631 renal
# MDA-MB-231 breast = system: MDA-MB-231 breast
# SNB-19 CNS = system: SNB-19 CNS
# KM12 colon = system: KM12 colon
# PC-3 prostate = system: PC-3 prostate
# DMS 273 small cell lung = system: DMS 273 small cell lung
# MOLT-4 leukemia = system: MOLT-4 leukemia
# NCI-H522 lung = system: NCI-H522 lung
# SR leukemia = system: SR leukemia
# XF 498 CNS = system: XF 498 CNS
smiles,measurement,setting,value
O=C1C=C(c2c(O)ccc3ccccc23)c2ccccc2C1=O,TGI,HOP-62 NSCLC,33.5 µM
same,TGI,COLO 205 colon,21.7 µM
same,TGI,NCI-H460 lung,26.8 µM
same,TGI,UO-31 renal,6.52 µM
same,TGI,RXF 393 renal,5.06 µM
same,TGI,SNB-75 CNS,12.9 µM
same,TGI,OVCAR-8 ovarian,5.3 µM
same,TGI,HOP-92 NSCLC,5.09 µM
same,TGI,CAKI-1 renal,24 µM
same,TGI,HCC-2998 colon,26.5 µM
same,TGI,MCF7 breast,2.11 µM
same,TGI,OVCAR-5 ovarian,25 µM
same,TGI,K-562 leukemia,23.4 µM
same,TGI,NCI-H226 lung,27.9 µM
same,TGI,A549 NSCLC,25.7 µM
same,TGI,OVCAR-3 ovarian,6.02 µM
same,TGI,SK-MEL-5 melanoma,7.42 µM
same,TGI,ACHN renal,11.7 µM
same,TGI,LOX IMVI melanoma,4.42 µM
same,TGI,UACC-257 melanoma,6.49 µM
same,TGI,HT29 colon,27.2 µM
same,TGI,SNB-78 CNS,8.64 µM
same,TGI,SK-MEL-28 melanoma,> 50 µM
same,TGI,SF-268 CNS,17.2 µM
same,TGI,MALME-3M melanoma,26.7 µM
same,TGI,SW-620 colon,5.21 µM
same,TGI,DMS 114 small cell lung,6.71 µM
same,TGI,HL-60(TB) leukemia,15.3 µM
same,TGI,EKVX NSCLC,11.9 µM
same,TGI,M14 melanoma,16.8 µM
same,TGI,HOP-18 NSCLC,23.3 µM
same,TGI,OVCAR-4 ovarian,3.79 µM
same,TGI,DLD-1 colon,16.4 µM
same,TGI,SF-539 CNS,4.36 µM
same,TGI,NCI/ADR-RES ovarian,8.96 µM
same,TGI,UACC-62 melanoma,5.48 µM
same,TGI,HCT-15 colon,13.1 µM
same,TGI,M19-MEL melanoma,8.81 µM
same,TGI,LXFL 529 NSCLC,2.96 µM
same,TGI,TK-10 renal,25.8 µM
same,TGI,786-0 renal,4.89 µM
same,TGI,SF-295 CNS,12.4 µM
same,TGI,NCI-H23 lung,4.92 µM
same,TGI,SK-MEL-2 melanoma,15.8 µM
same,TGI,MDA-MB-435,5.86 µM
same,TGI,U251 CNS,5.13 µM
same,TGI,A498 renal,13.4 µM
same,TGI,SK-OV-3 ovarian,23.9 µM
same,TGI,DU-145 prostate,24 µM
same,TGI,HCT-116 colon,8.06 µM
same,TGI,IGROV1 ovarian,9.01 µM
same,TGI,CCRF-CEM leukemia,7.55 µM
same,TGI,BT-549 breast,5.32 µM
same,TGI,SN12C renal,12.2 µM
same,TGI,RPMI-8226 leukemia,15.7 µM
same,TGI,KM20L2 colon,32.1 µM
same,TGI,RXF-631 renal,32.9 µM
same,TGI,MDA-MB-231 breast,8.79 µM
same,TGI,SNB-19 CNS,22.4 µM
same,TGI,KM12 colon,11.8 µM
same,TGI,PC-3 prostate,4.2 µM
same,TGI,DMS 273 small cell lung,11.3 µM
same,TGI,MOLT-4 leukemia,4.41 µM
CC1(C)C(=O)N(c2ccccc2)C(=O)N1c1nc2ccccc2[nH]1,TGI,HOP-62 NSCLC,> 100 µM
same,TGI,COLO 205 colon,> 100 µM
same,TGI,NCI-H460 lung,> 100 µM
same,TGI,UO-31 renal,> 100 µM
same,TGI,RXF 393 renal,> 100 µM
same,TGI,SNB-75 CNS,> 100 µM
same,TGI,OVCAR-8 ovarian,> 100 µM
same,TGI,HOP-92 NSCLC,> 100 µM
same,TGI,CAKI-1 renal,> 100 µM
same,TGI,HCC-2998 colon,> 100 µM
same,TGI,OVCAR-5 ovarian,> 100 µM
same,TGI,K-562 leukemia,> 100 µM
same,TGI,NCI-H226 lung,> 100 µM
same,TGI,A549 NSCLC,> 100 µM
same,TGI,OVCAR-3 ovarian,> 100 µM
same,TGI,SK-MEL-5 melanoma,> 100 µM
same,TGI,ACHN renal,> 100 µM
same,TGI,LOX IMVI melanoma,> 100 µM
same,TGI,UACC-257 melanoma,> 100 µM
same,TGI,HT29 colon,> 100 µM
same,TGI,SNB-78 CNS,> 100 µM
same,TGI,SK-MEL-28 melanoma,> 100 µM
same,TGI,SF-268 CNS,> 100 µM
same,TGI,MALME-3M melanoma,> 100 µM
same,TGI,SW-620 colon,36.3 µM
same,TGI,DMS 114 small cell lung,> 100 µM
same,TGI,HL-60(TB) leukemia,> 100 µM
same,TGI,EKVX NSCLC,> 100 µM
same,TGI,M14 melanoma,> 100 µM
same,TGI,HOP-18 NSCLC,> 100 µM
same,TGI,DLD-1 colon,> 100 µM
same,TGI,UACC-62 melanoma,> 100 µM
same,TGI,HCT-15 colon,> 100 µM
same,TGI,M19-MEL melanoma,> 100 µM
same,TGI,LXFL 529 NSCLC,> 100 µM
same,TGI,TK-10 renal,> 100 µM
same,TGI,786-0 renal,> 100 µM
same,TGI,SF-295 CNS,> 100 µM
same,TGI,NCI-H23 lung,> 100 µM
same,TGI,SK-MEL-2 melanoma,> 100 µM
same,TGI,NCI-H522 lung,> 100 µM
same,TGI,A498 renal,> 100 µM
same,TGI,SK-OV-3 ovarian,> 100 µM
same,TGI,HCT-116 colon,> 100 µM
same,TGI,IGROV1 ovarian,> 100 µM
same,TGI,CCRF-CEM leukemia,> 100 µM
same,TGI,SN12C renal,> 100 µM
same,TGI,SR leukemia,> 100 µM
same,TGI,RPMI-8226 leukemia,> 100 µM
same,TGI,XF 498 CNS,> 100 µM
same,TGI,KM20L2 colon,> 100 µM
same,TGI,RXF-631 renal,> 100 µM
same,TGI,SNB-19 CNS,> 100 µM
same,TGI,KM12 colon,> 100 µM
same,TGI,DMS 273 small cell lung,> 100 µM
same,TGI,MOLT-4 leukemia,> 100 µM
